For 37 compounds, IC50 and Ki results are on record in US9624217B2, “Dihydropyrrolopyridine inhibitors of ROR-gamma” (Vitae Pharmaceuticals, Inc., priority 2014, dated 2017).

The term pIC50 denotes the negative decadic logarithm of the IC50, by convention in mol/L. In general, pKi refers to the Ki on a negative log10 scale, so that one unit is a factor of ten.

For one assay, the target named is full-length RORγt (Homo sapiens (Human), UniProt P51449). Put plainly: RORγt 5×RORE Assay in Jurkat Cells (Assay 2). The settings on record: secreted Nanoluc luciferase 5×RORE reporter, 16-18 hrs, read-out: RORγt5X IC50 Range. It is filed as cell-based. On the procedure:
[formula] RORγt 5×RORE Assay in Jurkat Cells (Assay 2)
Compounds of the present invention were tested for RORγ inverse agonist activity in a cell-based, transcriptional activity assay. […] (Promega, Cat. #N1021) using KpnI and HindIII restriction sites. […] Luciferase activity in the conditioned supernatants was determined with NanoGlo® assay reagents (Promega, Cat. #N1130).

For assay [1], the target named is recombinant RORγ Ligand Binding Domain (LBD) (Homo sapiens (Human), UniProt P51449). Put plainly: Radio-Ligand RORγ Binding Assay (Assay 1). The settings on record: SPA competition with 25-hydroxy [26,27-3H]-cholesterol, cell-free; read-out: RORγ Binding Ki Range. On the procedure: Radio-Ligand RORγ Binding Assay (Assay 1)
Chain of recombinant RORγ Ligand Binding Domain (LBD) (P51449 269-508): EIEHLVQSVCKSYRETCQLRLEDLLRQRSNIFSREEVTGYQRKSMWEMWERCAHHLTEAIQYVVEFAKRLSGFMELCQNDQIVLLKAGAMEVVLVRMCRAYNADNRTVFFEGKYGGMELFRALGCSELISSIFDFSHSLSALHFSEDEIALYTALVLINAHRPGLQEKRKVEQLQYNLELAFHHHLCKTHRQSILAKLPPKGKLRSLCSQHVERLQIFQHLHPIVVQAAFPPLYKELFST
Compounds of the present invention were tested for ability to bind to RORγ in a cell-free competition assay with commercially available radio-ligand (RL), 25-hydroxy [26,27-^3H]-cholesterol (PerkinElmer, Cat. #NET674250UC), for a ligand binding site on a recombinant RORγ Ligand Binding Domain (LBD) protein expressed as a 6×His-Glutathione-S-Transferase (GST) fusion. […] The plate was shaken at 700 rpm for 20 min and incubated for 10 min at rt, after which 40 μL of poly-Lys YSi SPA beads (PerkinElmer, Cat. #RPNQ0010) were added to achieve 50 μg of the beads per well. The plate was incubated on an orbital shaker for 20 min and then for 10 min without agitation at rt. SPA signal for tritium beta radiation was registered on PerkinElmer Microbeta plate reader. […] The percent inhibition vs. concentration data were fit into a four-parameter model, and IC50 values were calculated from the fit as the concentrations corresponding to the inflection points on the dose-response curves.

Structures are written as SMILES. pIC50, pKi: −log10 of the molar value.

Chain of full-length RORγt (P51449 other isoform, or with tags, fused parts or gaps): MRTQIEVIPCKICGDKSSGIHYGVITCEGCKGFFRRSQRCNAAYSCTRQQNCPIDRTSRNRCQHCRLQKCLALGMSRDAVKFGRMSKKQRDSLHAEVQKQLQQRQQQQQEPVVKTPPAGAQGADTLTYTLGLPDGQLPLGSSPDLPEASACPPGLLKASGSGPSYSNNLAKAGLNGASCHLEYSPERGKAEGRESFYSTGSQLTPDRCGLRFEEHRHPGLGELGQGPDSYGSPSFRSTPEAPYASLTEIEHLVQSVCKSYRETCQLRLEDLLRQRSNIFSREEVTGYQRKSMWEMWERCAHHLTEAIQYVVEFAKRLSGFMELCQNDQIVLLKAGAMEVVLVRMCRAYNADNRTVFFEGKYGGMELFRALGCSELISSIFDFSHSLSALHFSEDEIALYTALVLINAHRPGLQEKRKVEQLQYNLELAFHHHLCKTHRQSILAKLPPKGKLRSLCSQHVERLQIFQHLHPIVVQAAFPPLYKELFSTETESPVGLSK

As to `CCS(=O)(=O)c1ccc(CNC(=O)c2cnc3c(c2)CN(C(=O)OC(C)(C)C)[C@H]3C(C)C)nc1` [Compound 46, Tert-butyl (S)-3-(((5-(ethylsulfonyl)pyridin-2-yl)methyl)carbamoyl)-7-isopropyl-5,7-dihydro-6H-pyrrolo[3,4-b]pyridine-6-carboxylate], the pIC50 on full-length RORγt was less than 6.00. Further, the pKi in assay [1] was greater than 7.00.

Take `CCS(=O)(=O)c1ccc(CNC(=O)c2cnc3c(c2)CN(CC2CCC(F)(F)CC2)[C@H]3C(C)C)nc1` [Compound 43]: on full-length RORγt, the pIC50 is less than 6.00. Also, the pKi in assay [1] was greater than 7.00.

As to `CC(C)[C@H]1c2ncc(C(=O)NCc3ccc(S(C)(=O)=O)cc3)cc2CN1Cc1ccc(C#N)cc1` [Compound 21], the pIC50 on full-length RORγt is 6.00 to 7.00. Moreover, the pKi in assay [1] is 6.00 to 7.00.

For `CCS(=O)(=O)c1ccc(CNC(=O)c2cnc3c(c2)CN(Cc2ccc(C(F)(F)F)cc2)[C@H]3C(C)C)nc1` [Compound 33], at full-length RORγt, the pIC50 was greater than 7.00. Further, the pKi in assay [1] is greater than 7.00.

As to `CC(C)[C@H]1c2ncc(C(=O)NCc3ccc(S(C)(=O)=O)cc3)cc2CN1Cc1ccc(F)cc1` [Compound 24], at full-length RORγt, the pIC50 is less than 6.00. The pKi in assay [1] is greater than 7.00.

Turning to `CCS(=O)(=O)c1ccc(CNC(=O)c2cnc3c(c2)CN(C[C@H]2CC[C@H](OC)CC2)[C@H]3C(C)C)cc1` [Compound 45], the pIC50 on full-length RORγt was greater than 7.00. The pKi in assay [1] is greater than 7.00.

As to `CCS(=O)(=O)c1ccc(CNC(=O)c2cnc3c(c2)CN(Cc2ccc(OC(F)F)cc2)[C@H]3C(C)C)cc1` [Compound 5], the pIC50 at full-length RORγt is greater than 7.00. Further, the pKi in assay [1] was greater than 7.00.

Regarding `CC(C)[C@H]1c2ncc(C(=O)N[C@@H](CO)c3ccc(C#N)cc3)cc2CN1Cc1ccc(C(F)(F)F)cc1` [Compound 149], the pIC50 at full-length RORγt is 6.00 to 7.00. For the same compound, in assay [1], the pKi was greater than 7.00.

As for `CCS(=O)(=O)c1ccc(CC(=O)Nc2cnc3c(c2)CN(C[C@H]2CC[C@H](C(F)(F)F)CC2)[C@H]3C(C)C)cc1` [Compound 55], the pIC50 at full-length RORγt was greater than 7.00. In addition, in assay [1], the pKi was greater than 7.00.

For `CC(C)[C@H]1c2ncc(C(=O)NCc3ccc(C#N)cc3)cc2CN1Cc1ccc(C(F)(F)F)cc1` [Compound 64], the pIC50 at full-length RORγt was 6.00 to 7.00. For the same compound, the negative-log Ki (pKi) in assay [1] is greater than 7.00.

For the compound `CC(C)[C@H]1c2ncc(C(=O)NCc3ccc(S(C)(=O)=O)cc3)cc2CN1Cc1ccc(C(F)(F)F)cc1` [Compound 22], the pIC50 at full-length RORγt was greater than 7.00. Also, the pKi in assay [1] is greater than 7.00.

On to `CCS(=O)(=O)c1ccc(CNC(=O)c2cnc3c(c2)CN(Cc2ccc(C#N)cc2)[C@H]3C(C)C)nc1` [Compound 35], for which the pIC50 on full-length RORγt is 6.00 to 7.00. For the same compound, in assay [1], the pKi is greater than 7.00.

Regarding `CCS(=O)(=O)c1ccc(CNC(=O)c2cnc3c(c2)CN(c2ncc(C(F)(F)F)cn2)[C@H]3C(C)C)cc1` [Compound 8], the negative logarithm of the IC50 (pIC50) at full-length RORγt was less than 6.00. The pKi in assay [1] is greater than 7.00.

Consider `CCS(=O)(=O)c1ccc(CNC(=O)c2cnc3c(c2)CN(CC2CCC(F)(F)CC2)[C@H]3C(C)C)cc1` [Compound 42], for which the pIC50 at full-length RORγt was less than 6.00. Further, the pKi in assay [1] was greater than 7.00.

With `CC(C)[C@H]1c2ncc(C(=O)NCc3ccc(C#N)cn3)cc2CN1Cc1ccc(C(F)(F)F)cc1` [Compound 155], the pIC50 at full-length RORγt is less than 6.00. Besides, in assay [1], the pKi is 6.00 to 7.00.

Take `CCS(=O)(=O)c1ccc(CNC(=O)c2cnc3c(c2)CN(Cc2ccc4c(c2)OC(F)(F)O4)[C@H]3C(C)C)nc1` [Compound 54]: the pIC50 at full-length RORγt was greater than 7.00. Further, the pKi in assay [1] is greater than 7.00.

`CCS(=O)(=O)c1ccc(CNC(=O)c2cnc3c(c2)[C@H](C)N(Cc2ccc(Cl)cc2)[C@H]3C(C)C)cc1` [Compound 29]: on full-length RORγt, the pIC50 is greater than 7.00. The pKi in assay [1] is greater than 7.00.

In the case of `CCS(=O)(=O)c1cnc(CNC(=O)c2cnc3c(c2)CN(Cc2ccc(C(F)(F)F)cc2)[C@H]3C(C)C)c(C)c1` [Compound 142], the pIC50 on full-length RORγt was greater than 7.00. Further, the pKi in assay [1] is greater than 7.00.

With `CCS(=O)(=O)N1CCC(CNC(=O)c2cnc3c(c2)CN(Cc2ccc(C(F)(F)F)cc2)[C@H]3C(C)C)CC1` [Compound 109], the pIC50 on full-length RORγt is less than 6.00. In addition, in assay [1], the pKi was greater than 7.00.

For the compound `CCS(=O)(=O)c1ccc(CNC(=O)c2cnc3c(c2)CN(Cc2ccc(F)cc2)[C@H]3C(C)C)cc1` [Compound 7], the pIC50 at full-length RORγt was 6.00 to 7.00. In assay [1], the pKi was greater than 7.00.

As for `CCS(=O)(=O)c1ccc(CNC(=O)c2cnc3c(c2)[C@H](C)N(Cc2ccc(C(F)(F)F)cc2)[C@H]3C(C)C)cc1` [Compound 31], on full-length RORγt, the pIC50 is greater than 7.00. For the same compound, in assay [1], the pKi was greater than 7.00.

For `CCS(=O)(=O)c1ccc(CNC(=O)c2cnc3c(c2)CN(Cc2ccc(Cl)cc2)[C@H]3C(C)C)nc1` [Compound 34], the pIC50 at full-length RORγt is greater than 7.00. Further, the pKi in assay [1] was greater than 7.00.

Take `CCS(=O)(=O)c1ccc(CNC(=O)c2cnc3c(c2)CN(CC2CCN(CC(F)(F)F)CC2)[C@H]3C(C)C)cc1` [Compound 49]: the pIC50 at full-length RORγt is greater than 7.00. In addition, the pKi in assay [1] is greater than 7.00.

Consider `CCS(=O)(=O)c1ccc(CNC(=O)c2cnc3c(c2)[C@@H](C)N(Cc2ccc(Cl)cc2)[C@H]3C(C)C)cc1` [Compound 28], for which, at full-length RORγt, the pIC50 is greater than 7.00. Besides, in assay [1], the pKi is greater than 7.00.

Take `CC(C)[C@H]1c2ncc(C(=O)NC[C@H]3CC[C@H](CC(=O)O)CC3)cc2CN1Cc1ccc(C(F)(F)F)cc1` [Compound 139]: the pIC50 at full-length RORγt was 6.00 to 7.00. In addition, the pKi in assay [1] was greater than 7.00.

Consider `CNS(=O)(=O)c1ccc(CNC(=O)c2cnc3c(c2)CN(Cc2ccc(C(F)(F)F)cc2)[C@H]3C(C)C)cc1` [Compound 67], for which, at full-length RORγt, the pIC50 is greater than 7.00. For the same compound, in assay [1], the pKi was greater than 7.00.

`CCS(=O)(=O)c1ccc(CNC(=O)c2cnc3c(c2)CN(C(=O)OCc2ccc(Cl)cc2)[C@H]3C(C)C)cc1` [Compound 25]: at full-length RORγt, the pIC50 is less than 6.00. The pKi in assay [1] is greater than 7.00.

`CCS(=O)(=O)c1ccc(CNC(=O)c2cnc3c(c2)C(=O)N(Cc2ccc(Cl)cc2)C3(O)C(C)C)cc1` (centres unmarked) [Compound 11]: the pIC50 at full-length RORγt was less than 6.00. In addition, in assay [1], the pKi is 6.00 to 7.00.

Turning to `CCS(=O)(=O)c1ccc(CC(=O)Nc2cnc3c(c2)CN(Cc2ccc(C(F)(F)F)cc2)[C@H]3C(C)C)cc1` [Compound 58], at full-length RORγt, the pIC50 is greater than 7.00. Also, the pKi in assay [1] was greater than 7.00.

Regarding `CCS(=O)(=O)c1ccc(CC(=O)Nc2cnc3c(c2)CN(Cc2ccc(C#N)cc2)[C@H]3C(C)C)cc1` [Compound 57], the pIC50 on full-length RORγt is greater than 7.00. Moreover, in assay [1], the pKi is greater than 7.00.

For `CCOC(=O)c1cnc(N2Cc3cc(C(=O)NCc4ccc(S(=O)(=O)CC)cc4)cnc3[C@@H]2C(C)C)nc1C(F)(F)F` [Compound 10], the pIC50 on full-length RORγt was less than 6.00. The pKi in assay [1] was greater than 7.00.

As to `CCS(=O)(=O)c1ccc(CNC(=O)c2cnc3c(c2)CN(Cc2ccc(C#N)cc2)[C@H]3C(C)C)cc1` [Compound 4], the pIC50 on full-length RORγt was greater than 7.00. Also, the pKi in assay [1] was greater than 7.00.

`CCS(=O)(=O)c1ccc(CNC(=O)c2cnc3c(c2)[C@@H](C)N(Cc2ccc(C(F)(F)F)cc2)[C@H]3C(C)C)cc1` [Compound 30]: the pIC50 at full-length RORγt was greater than 7.00. Besides, in assay [1], the pKi is greater than 7.00.

In the case of `CCS(=O)(=O)c1ccc(CNC(=O)c2cnc3c(c2)CN(Cc2ccc(Cl)cc2)[C@H]3C(C)C)cc1` [Compound 3], the pIC50 on full-length RORγt is greater than 7.00. Also, the pKi in assay [1] is greater than 7.00.

As to `CC(C)[C@H]1c2ncc(C(=O)NCc3ccc(S(C)(=O)=O)cc3)cc2CN1Cc1ccc(Cl)cc1` [Compound 17], the pIC50 on full-length RORγt was greater than 7.00. The pKi in assay [1] was greater than 7.00.

As to `CC(C)[C@H]1c2ncc(C(=O)NCC3CCN(S(C)(=O)=O)CC3)cc2CN1Cc1ccc(C(F)(F)F)cc1` [Compound 63], the pIC50 at full-length RORγt was 6.00 to 7.00. For the same compound, the pKi in assay [1] is greater than 7.00.

`CCS(=O)(=O)c1cnc(CNC(=O)c2cnc3c(c2)CN(Cc2ccc(C(F)(F)F)cc2)[C@H]3C(C)C)c(F)c1` [Compound 144]: at full-length RORγt, the negative logarithm of the IC50 (pIC50) was greater than 7.00. Further, the pKi in assay [1] is greater than 7.00.
